Measured values as given in ChEMBL document CHEMBL1142074, “In vitro activities of cloxyquin (5-chloroquinolin-8-ol) against Mycobacterium tuberculosis” (2007).

Tests used:
Format in all cases: functional
[1] = test system: Mycobacterium tuberculosis; experiment: Antimycobacterial activity against cycloserine-resistant Mycobacterium tuberculosis H37Rv ATCC 35826 by microplate alamar blue assay
[2] = test system: Mycobacterium tuberculosis; experiment: Antimycobacterial activity against pyrazinamide-resistant Mycobacterium tuberculosis H37Rv ATCC 35828 by microplate alamar blue assay
[3] = test system: Mycobacterium tuberculosis; experiment: Antimycobacterial activity against ethambutol-resistant Mycobacterium tuberculosis H37Rv ATCC 35837 by microplate alamar blue assay
[4] = test system: Mycobacterium tuberculosis; experiment: Antimycobacterial activity against kanamycin-resistant Mycobacterium tuberculosis H37Rv ATCC 35827 by microplate alamar blue assay
[5] = test system: Mycobacterium tuberculosis; experiment: Antimycobacterial activity against thiacetazone-resistant Mycobacterium tuberculosis H37Rv ATCC 35829 by microplate alamar blue assay
[6] = test system: Mycobacterium tuberculosis; experiment: Antimycobacterial activity against ethionamide-resistant Mycobacterium tuberculosis H37Rv ATCC 35830 by microplate alamar blue assay

Measured: MIC

Oc1ccc(Cl)c2cccnc12 [CLOXYQUIN]
0.125 µg/mL: [1] | [2] | [3] | [4] | [5] | [6]
